Measured values reported in EP0398425A1, “Antirhinoviral piperidinyl, pyrrolidinyl and piperazinyl alkylphenol ethers” (JANSSEN PHARMACEUTICA N.V., priority 1989, dated 1990).
Values after ≈ are worked out from the molar mass of the structure shown.

Legend:
[1] = system: Human Rhinovirus serotypes HRV- 2,-29,-39,-85,-9,-15,-51,-59,-63,-89,-41; assay: Picornavirus Minimal Inhibitory Concentration Test (cytopathic effect reduction assay), first panel of rhinoviruses; format: cell-based; conditions: Human rhinovirus sp.; medium value of the IC50-values of all serotypes of the first panel; Ohio Hela cells, 3 to 5 days at 33°C; IC50 = concentration protecting 50% of the cells from cytopathic effects; read-out: Med₁
Procedure: (§1) The Minimal Inhibitory Concentration of the compounds of the present invention against the Human Rhinovirus strains (HRV) -2,-9,-14,-15,-29,-39,-41,-42,-45,-51, -59, -63,-70,-72,-85,-86 and -89 was determined by a standard cytopathic effect reduction assay as follows. To each of the ninty six (96) wells of a microtiter 96 well tissue culture plate there was added 60 µl of a Ohio Hela cell maintenance medium [Eagle's Basal medium supplemented with 5% Foetal Calf Serum (FCS)]. To two wells there was added 60 µl of an appropriate starting dilution of a compound of formula (I) and two-fold dilutions were made to cover a wide range of compound concentrations. Subsequently there were added 120 µl of an infectious solution of virus in Eagle's Basal Medium with 2% Hepes buffer, 2% FCS and 30 mM MgCl₂ to all wells except cell and compound controls. Said infectious virus solution having a TCID₅₀-value (Tissue Culture Infectious Dose) of about 100.
(§2) The TCID₅₀-value is the dose of viruses which initiates a cytopathic effect in 50% of the inoculated cells. 150 µl of the thus obtained virus-compound mixtures were then transferred to microtitre plates with subconfluent Ohio Hela Cells, grown in 100 µl of maintenance medium. Appropriate virus controls, cell controls and compound controls were included in each test. Plates were incubated for 3 to 5 days at 33°C in 5% CO₂ atmosphere. […] The IC₅₀-value for each virus-compound series was taken as the concentration in ng/ml that protected 50% of the cells from cytopathic effects with respect to the untreated controls. In the standard test procedure, the compounds were tested against two panels of rhinoviruses, a first panel consisting of serotypes HRV- 2,-29,-39,-85,-9,-15,-51,-59,-63,-89,-41 and the other panel consisting of HRV-42,-45,-14,-70,-72 and -86.
(§3) The IC₅₀-value for each rhinovirus serotype was determined, and the efficacy of each compound was determined in terms of the Med₁-value and Med₂-value, which is the medium value of the IC₅₀-values of all serotypes from the first and second panel respectively.

[2] = system: Human Rhinovirus serotypes HRV-42,-45,-14,-70,-72 and -86; assay: Picornavirus Minimal Inhibitory Concentration Test (cytopathic effect reduction assay), second panel of rhinoviruses; format: cell-based; conditions: Human rhinovirus sp., HRV42; medium value of the IC50-values of all serotypes of the second panel; Ohio Hela cells, 3 to 5 days at 33°C; IC50 = concentration protecting 50% of the cells from cytopathic effects; read-out: Med₂
Procedure: as §1, §2, §3

Compound | IC50 [1] [µg/mL] | IC50 [2] [µg/mL]
CCOC(=O)c1ccc(OCCC2CCN(c3nc(C(=O)OCC)cs3)CC2)cc1 [Compound 6] | 0.031 (≈ 0.0717 µM) | 0.4 (≈ 0.925 µM)
CCOC(=O)c1ccc(OCCC2CCN(c3nnc(C)s3)CC2)cc1 [Compound 13, ethyl 4-[2-[1-(5-methyl-1,3,4-thiadiazol-2-yl)-4-piperidinyl]ethoxy]benzoate] | 0.01 (≈ 0.0266 µM) | 0.035 (≈ 0.0932 µM)
CCOC(=O)c1ccc(OCCC2CCN(C3=NS(=O)(=O)c4ccccc43)CC2)cc1 [Compound 14] | 0.053 (≈ 0.12 µM) | 0.344 (≈ 0.777 µM)
CCOC(=O)c1ccc(OCCC2CCN(c3nnc(Br)s3)CC2)cc1 [Compound 17] | 0.006 (≈ 0.0136 µM) | 0.0705 (≈ 0.16 µM)
CCOC(=O)c1ccc(OCCC2CCN(c3nsc4ccccc34)CC2)cc1 [Compound 19, ethyl 4-[2-[1-(1,2-benzisothiazol-3-yl)-4-piperidinyl]ethoxy]benzoate] | 0.144 (≈ 0.351 µM) | 0.25 (≈ 0.609 µM)
CCOC(=O)c1ccc(OCCN2CCN(c3nnc(Br)s3)CC2)cc1 [Compound 27] | 0.044 (≈ 0.0997 µM) | 0.011 (≈ 0.0249 µM)
CCOC(=O)c1ccc(OCCCN2CCN(c3nnc(Br)s3)CC2)cc1 [Compound 29] | 0.175 (≈ 0.384 µM) | 0.037 (≈ 0.0813 µM)
CCOC(=O)c1ccc(OCCN2CCN(c3nc(C(=O)OCC)cs3)CC2)cc1 [Compound 34, ethyl 2-[4-[2-[4-(ethoxycarbonyl)phenoxy]ethyl]-1-piperazinyl]-4-thiazolecarboxylate] | 0.088 (≈ 0.203 µM) | 0.009 (≈ 0.0208 µM)
CCOC(=O)c1ccc(OCCCN2CCN(c3nncs3)CC2)cc1 [Compound 35] | 0.376 (≈ 0.999 µM) | 0.172 (≈ 0.457 µM)
CCOC(=O)c1ccc(OCCN2CCN(c3nc4ccccc4s3)CC2)cc1 [Compound 46, ethyl 4-[2-[4-(2-benzothiazolyl)-1-piperazinyl]ethoxy]benzoate] | 0.312 (≈ 0.758 µM) | 0.027 (≈ 0.0656 µM)
CCOC(=O)c1ccc(OCCCN2CCN(c3nc(C(=O)OCC)cs3)CC2)cc1 [Compound 49] | 0.156 (≈ 0.349 µM) | 0.097 (≈ 0.217 µM)
CCc1noc(-c2ccc(OCCC3CCN(c4nnc(Br)s4)CC3)cc2)n1 [Compound 61] | 0.011 (≈ 0.0237 µM) | 0.244 (≈ 0.525 µM)
